For one data set, the system named is human red blood cells. The class given is cell-based. To be noted: red cells of human, 1 h, 25. In a few lines: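 Washed human RBCs as 1% (v/v) suspension in phosphate-buffered saline incubated 1 h at 37° C with serially diluted peptides. Hemoglobin release in supernatant measured spectrophotometrically (570 nm), % hemolysis relative to untreated and 1% Triton-X100 controls; MHC defined as concentration giving less than 1% release.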

The next data set deals with P. aeruginosa. The format is cell-based, Pseudomonas aeruginosa. In a few lines:
(§1)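 Broth microdilution in anion-exchange-refined Mueller-Hinton broth; serially diluted peptide mixed with bacteria at 5×10^5 CFU/ml final inoculum. Incubated 20-24 hours at 37° C. MIC taken as lowest peptide concentration with no visible growth.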

The subject of another data set is B. cereus. The class given is cell-based, Bacillus cereus. The method in brief:
as §1

A further data set deals with E. coli. The class given is cell-based, Escherichia coli. The method in brief:
as §1

The test system of a further data set is S. aureus. The format is cell-based, Staphylococcus aureus. In a few lines:
as §1

Each structure is given as a SMILES string. Bridge positions count the residues as written; N and C are the ends. Square brackets hold non-standard residues; d marks the D form. Peptide text beside a SMILES is read from it. S5 = C=CCCC[C@](C)(N)C(=O)O; Nle = CCCC[C@H](N)C(=O)O A value given as a limit tells only on which side of the number the result lay.

From patent US20200231638A1, “STABILIZED ANTI-MICROBIAL PEPTIDES” (priority 2015, published 2020) come the findings set out here.

For `CCCC[C@H](NC(=O)[C@]1(C)CCCC=CCCC[C@](C)(NC(=O)[C@H](C)NC(=O)[C@H](CCCCN)NC(=O)[C@@H](C)NC(=O)[C@H](Cc2ccccc2)NC(=O)[C@H](CCCCN)NC(=O)[C@H](CCCCN)NC(=O)[C@H](C)NC(=O)[C@H](CO)NC(=O)[C@H](Cc2c[nH]cn2)NC(=O)[C@H](CC(C)C)NC(=O)[C@H](Cc2ccccc2)NC(=O)[C@H](CCCCN)NC(=O)CNC(=O)[C@@H](NC(=O)CN)[C@@H](C)CC)C(=O)N[C@@H](C(C)C)C(=O)NCC(=O)N[C@@H](CCC(=O)O)C(=O)N1)C(=O)N[C@@H](CC(N)=O)C(=O)N[C@@H](CO)C(N)=O` [Mag(i + 4)15(G13a)] (H-GIGKFLHSAKKF[dA]KA[S5]VGE[S5][Nle]NS-NH2; staple 16-20), the “% Hemolysis at 25 μg/ml” value with human red blood cells turned out to be 4.3%. Besides, the “MIC P. aeruginosa” value with P. aeruginosa stood at 3.1 µg/mL. Moreover, the “MIC B. cereus” value in the data set on B. cereus was 6.2 µg/mL. The “MIC E. coli” value with E. coli came out at 1.6 µg/mL. In the data set with S. aureus, the “MIC S. aureus” value was 6.2 µg/mL.

On to `CCCC[C@H](NC(=O)[C@]1(C)CCCC=CCCC[C@](C)(NC(=O)[C@H](C)NC(=O)[C@H](CCCCN)NC(=O)[C@@H](CCCCN)NC(=O)[C@H](Cc2ccccc2)NC(=O)[C@H](CCCCN)NC(=O)[C@H](CCCCN)NC(=O)[C@H](C)NC(=O)[C@H](CO)NC(=O)[C@H](Cc2c[nH]cn2)NC(=O)[C@H](CC(C)C)NC(=O)[C@H](Cc2ccccc2)NC(=O)[C@H](CCCCN)NC(=O)CNC(=O)[C@@H](NC(=O)CN)[C@@H](C)CC)C(=O)N[C@@H](C(C)C)C(=O)NCC(=O)N[C@@H](CCC(=O)O)C(=O)N1)C(=O)N[C@@H](CC(N)=O)C(=O)N[C@@H](CO)C(N)=O` [Mag(i + 4)15(G13k)] (H-GIGKFLHSAKKF[dK]KA[S5]VGE[S5][Nle]NS-NH2; staple 16-20), for which the “% Hemolysis at 25 μg/ml” value with human red blood cells was 2.1%. The “MIC P. aeruginosa” value with P. aeruginosa was determined as 25 µg/mL. Besides, the “MIC B. cereus” value with B. cereus was found to be 50 µg/mL. In addition, the “MIC E. coli” value against E. coli is 3.1 µg/mL. The “MIC S. aureus” value against S. aureus is greater than 50 µg/mL.

Regarding `CCCC[C@H](NC(=O)[C@]1(C)CCCC=CCCC[C@](C)(NC(=O)[C@H](C)NC(=O)[C@H](CCCCN)NC(=O)CNC(=O)[C@H](Cc2ccccc2)NC(=O)[C@H](CCCCN)NC(=O)[C@H](CCCCN)NC(=O)[C@H](C)NC(=O)[C@H](CO)NC(=O)[C@H](Cc2c[nH]cn2)NC(=O)[C@H](CC(C)C)NC(=O)[C@H](Cc2ccccc2)NC(=O)[C@H](CCCCN)NC(=O)CNC(=O)[C@@H](NC(=O)CN)[C@@H](C)CC)C(=O)N[C@@H](C(C)C)C(=O)N[C@@H](CCC(=O)O)C(=O)N[C@@H](CCC(=O)O)C(=O)N1)C(=O)N[C@@H](CC(N)=O)C(=O)N[C@@H](CO)C(N)=O` [Mag(i + 4)15(G18E), GIGKFLHSAKKFGKAXVEEXBNS] (H-GIGKFLHSAKKFGKA[S5]VEE[S5][Nle]NS-NH2; staple 16-20), in the data set on human red blood cells, the “% Hemolysis at 25 μg/ml” value worked out at 4.8%. In addition, the “MIC P. aeruginosa” value against P. aeruginosa stood at 12.5 µg/mL. The “MIC B. cereus” value in the data set on B. cereus came out at 6.2 µg/mL. Besides, in the data set on E. coli, the “MIC E. coli” value was found to be 3.1 µg/mL. For the same molecule, in the data set with S. aureus, the “MIC S. aureus” value was 12.5 µg/mL.

For `CCCC[C@H](NC(=O)[C@]1(C)CCCC=CCCC[C@](C)(NC(=O)[C@H](C)NC(=O)[C@H](CCCCN)NC(=O)CNC(=O)[C@H](Cc2ccccc2)NC(=O)[C@H](CCCCN)NC(=O)[C@H](CCCCN)NC(=O)[C@H](C)NC(=O)[C@H](CO)NC(=O)[C@H](Cc2c[nH]cn2)NC(=O)[C@H](CC(C)C)NC(=O)[C@H](Cc2ccccc2)NC(=O)[C@H](CCCCN)NC(=O)CNC(=O)[C@@H](NC(=O)CN)[C@@H](C)CC)C(=O)N[C@@H](C(C)C)C(=O)N[C@@H](Cc2c[nH]cn2)C(=O)N[C@@H](CCC(=O)O)C(=O)N1)C(=O)N[C@@H](CC(N)=O)C(=O)N[C@@H](CO)C(N)=O` [Mag(i + 4)15(G18H), GIGKFLHSAKKFGKAXVHEXBNS] (H-GIGKFLHSAKKFGKA[S5]VHE[S5][Nle]NS-NH2; staple 16-20), in the data set with human red blood cells, the “% Hemolysis at 25 μg/ml” value was found to be 6.8%. In the data set on P. aeruginosa, the “MIC P. aeruginosa” value is 6.2 µg/mL. Moreover, in the data set on B. cereus, the “MIC B. cereus” value was 3.1 µg/mL. Further, in the data set on E. coli, the “MIC E. coli” value came out at 1.6 µg/mL. Moreover, the “MIC S. aureus” value in the data set on S. aureus is 6.2 µg/mL.

On to `CCCC[C@H](NC(=O)[C@]1(C)CCCC=CCCC[C@](C)(NC(=O)[C@H](C)NC(=O)[C@H](CCCCN)NC(=O)CNC(=O)[C@H](Cc2ccccc2)NC(=O)[C@H](CCCCN)NC(=O)[C@H](CCCCN)NC(=O)[C@H](C)NC(=O)[C@H](CO)NC(=O)[C@H](Cc2c[nH]cn2)NC(=O)[C@H](CC(C)C)NC(=O)[C@H](Cc2ccccc2)NC(=O)[C@H](CCCCN)NC(=O)CNC(=O)[C@@H](NC(=O)CN)[C@@H](C)CC)C(=O)N[C@@H](C(C)C)C(=O)N[C@@H](CCCCN)C(=O)N[C@@H](CCC(=O)O)C(=O)N1)C(=O)N[C@@H](CC(N)=O)C(=O)N[C@@H](CO)C(N)=O` [Mag(i + 4)15(G18K), GIGKFLHSAKKFGKAXVKEXBNS] (H-GIGKFLHSAKKFGKA[S5]VKE[S5][Nle]NS-NH2; staple 16-20), for which, in the data set on human red blood cells, the “% Hemolysis at 25 μg/ml” value is listed as 10.1%. For the same molecule, in the data set on P. aeruginosa, the “MIC P. aeruginosa” value amounted to 3.1 µg/mL. Further, in the data set on B. cereus, the “MIC B. cereus” value came to 3.1 µg/mL. Further, the “MIC E. coli” value in the data set on E. coli was determined as 1.6 µg/mL. In addition, the “MIC S. aureus” value against S. aureus turned out to be 12.5 µg/mL.

Turning to `CCCC[C@H](NC(=O)[C@]1(C)CCCC=CCCC[C@](C)(NC(=O)[C@H](C)NC(=O)[C@H](CCCCN)NC(=O)CNC(=O)[C@H](Cc2ccccc2)NC(=O)[C@H](CCCCN)NC(=O)[C@H](CCCCN)NC(=O)[C@H](C)NC(=O)[C@H](CO)NC(=O)[C@H](CCC(=O)O)NC(=O)[C@H](CC(C)C)NC(=O)[C@H](Cc2ccccc2)NC(=O)[C@H](CCCCN)NC(=O)CNC(=O)[C@@H](NC(=O)CN)[C@@H](C)CC)C(=O)N[C@@H](C(C)C)C(=O)NCC(=O)N[C@@H](CCC(=O)O)C(=O)N1)C(=O)N[C@@H](CC(N)=O)C(=O)N[C@@H](CO)C(N)=O` [Mag(i + 4)15(H7E), GIGKFLESAKKFGKAXVGEXBNS] (H-GIGKFLESAKKFGKA[S5]VGE[S5][Nle]NS-NH2; staple 16-20), in the data set with human red blood cells, the “% Hemolysis at 25 μg/ml” value came to 2.9%. Further, in the data set on P. aeruginosa, the “MIC P. aeruginosa” value amounted to 12.5 µg/mL. In addition, the “MIC B. cereus” value against B. cereus was determined as 6.2 µg/mL. In the data set on E. coli, the “MIC E. coli” value is 3.1 µg/mL. Further, the “MIC S. aureus” value with S. aureus stood at 25 µg/mL.

Take `CCCC[C@H](NC(=O)[C@]1(C)CCCC=CCCC[C@](C)(NC(=O)[C@H](C)NC(=O)[C@H](CCCCN)NC(=O)CNC(=O)[C@H](Cc2ccccc2)NC(=O)[C@H](CCCCN)NC(=O)[C@H](CCCCN)NC(=O)[C@H](C)NC(=O)[C@H](CO)NC(=O)[C@H](CCCCN)NC(=O)[C@H](CC(C)C)NC(=O)[C@H](Cc2ccccc2)NC(=O)[C@H](CCCCN)NC(=O)CNC(=O)[C@@H](NC(=O)CN)[C@@H](C)CC)C(=O)N[C@@H](C(C)C)C(=O)NCC(=O)N[C@@H](CCC(=O)O)C(=O)N1)C(=O)N[C@@H](CC(N)=O)C(=O)N[C@@H](CO)C(N)=O` [Mag(i + 4)15(H7K), GIGKFLKSAKKFGKAXVGEXBNS] (H-GIGKFLKSAKKFGKA[S5]VGE[S5][Nle]NS-NH2; staple 16-20; N-terminus and C-terminus assumed): the “% Hemolysis at 25 μg/ml” value in the data set with human red blood cells is 3.1%. Moreover, the “MIC P. aeruginosa” value against P. aeruginosa came out at 3.1 µg/mL. For the same molecule, in the data set with B. cereus, the “MIC B. cereus” value amounted to 3.1 µg/mL. Besides, the “MIC E. coli” value in the data set with E. coli was 1.6 µg/mL. Besides, in the data set with S. aureus, the “MIC S. aureus” value stood at 6.2 µg/mL.

On to `CCCC[C@H](NC(=O)[C@]1(C)CCCC=CCCC[C@](C)(NC(=O)[C@H](C)NC(=O)[C@H](CCCCN)NC(=O)CNC(=O)[C@H](Cc2ccccc2)NC(=O)[C@H](CCCCN)NC(=O)[C@H](CCCCN)NC(=O)[C@H](C)NC(=O)[C@H](CO)NC(=O)[C@H](Cc2c[nH]cn2)NC(=O)[C@H](CC(C)C)NC(=O)[C@H](Cc2ccccc2)NC(=O)[C@H](CCCCN)NC(=O)CNC(=O)[C@H](CCC(=O)O)NC(=O)CN)C(=O)N[C@@H](C(C)C)C(=O)NCC(=O)N[C@@H](CCC(=O)O)C(=O)N1)C(=O)N[C@@H](CC(N)=O)C(=O)N[C@@H](CO)C(N)=O` [Mag(i + 4)15(I2E), GEGKFLHSAKKFGKAXVGEXBNS] (H-GEGKFLHSAKKFGKA[S5]VGE[S5][Nle]NS-NH2; staple 16-20), for which, in the data set on human red blood cells, the “% Hemolysis at 25 μg/ml” value stood at 3.6%. Further, the “MIC P. aeruginosa” value against P. aeruginosa is greater than 50 µg/mL. In the data set on B. cereus, the “MIC B. cereus” value is greater than 50 µg/mL. Also, the “MIC E. coli” value against E. coli is 12.5 µg/mL. Also, the “MIC S. aureus” value in the data set on S. aureus is greater than 50 µg/mL.

Consider `CCCC[C@H](NC(=O)[C@]1(C)CCCC=CCCC[C@](C)(NC(=O)[C@H](C)NC(=O)[C@H](CCCCN)NC(=O)CNC(=O)[C@H](Cc2ccccc2)NC(=O)[C@H](CCCCN)NC(=O)[C@H](CCCCN)NC(=O)[C@H](C)NC(=O)[C@H](CO)NC(=O)[C@H](Cc2c[nH]cn2)NC(=O)[C@H](CC(C)C)NC(=O)[C@H](Cc2ccccc2)NC(=O)[C@H](CCCCN)NC(=O)CNC(=O)[C@H](CCCCN)NC(=O)CN)C(=O)N[C@@H](C(C)C)C(=O)NCC(=O)N[C@@H](CCC(=O)O)C(=O)N1)C(=O)N[C@@H](CC(N)=O)C(=O)N[C@@H](CO)C(N)=O` [Mag(i + 4)15(I2K), GKGKFLHSAKKFGKAXVGEXBNS] (H-GKGKFLHSAKKFGKA[S5]VGE[S5][Nle]NS-NH2; staple 16-20), for which the “% Hemolysis at 25 μg/ml” value in the data set on human red blood cells is listed as 2.3%. For the same molecule, in the data set with P. aeruginosa, the “MIC P. aeruginosa” value turned out to be 3.1 µg/mL. The “MIC B. cereus” value against B. cereus stood at 12.5 µg/mL. Besides, the “MIC E. coli” value in the data set with E. coli was found to be 1.6 µg/mL. In addition, the “MIC S. aureus” value in the data set on S. aureus was 23 µg/mL.
